From patent publication US9409952B2, “Peptide-compound cyclization method” (Chugai Seiyaku Kabushiki Kaisha, priority 2011, dated 2016)
Where two headings read alike, the source gives them in different places. Starred links: 1 amine or outer side, 2 acyl side, 3 side chain; linkers in the order of their positions; H or OH if unused. Positions of bridges follow the written chain, without caps; N, C: chain ends. Non-standard residues stand in square brackets, D forms with d. Residues, ends and D or L forms follow the SMILES beside them. *: point of attachment. NMeF = CN[C@@H](Cc1ccccc1)C(=O)O; NMeI = CC[C@H](C)[C@H](NC)C(=O)O; NMeβAla = CN(CCC(=O)[*:2])[*:1]; NMeL = CN[C@@H](CC(C)C)C(=O)O; NMeV = CN[C@H](C(=O)O)C(C)C; NMeA = CN[C@@H](C)C(=O)O; Piperidide = C1CCN(*)CC1; dNMeA = CN[C@H](C)C(=O)O; Sar = CNCC(=O)O; tBu = CC(C)(C)*

Tests used:
[1] = PAMPA (parallel artificial membrane permeability assay); type: in vitro ADME; details: PAMPA
How it was run: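 Artificial membrane was 10% (w/v) egg lecithin plus 0.5% (w/v) cholesterol in dodecane on a PVDF filter. A 10 mM DMSO stock was added at 0.5% (v/v) to donor buffer (50 mM MOPSO, pH 6.5, 5.0% glycocholic acid). After 18 h at 37 °C, LC/MS or LC/UV gave donor and acceptor levels for Pe.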

[2] = Metabolic stability in human hepatic microsome; type: in vitro ADME; details: microsomes
[3] = membrane permeation rate (Pe), 50 mM MOPSO buffer pH 6.5 with 5.0% glycocholic acid, 37° C., 18 hours, read-out: iPAMPA Pe
[4] = pH 7.4, human hepatic microsome, NADPH(+), read-out: CL NADPH(+)

SMILES	Papp at 18 hours, 50 µM ([1]; pH 6.5) [×10⁻⁶ cm/s]	microsomal CLint at 1 uM ([2]; human, pH 7.4, CL NADPH(+)) [µL/min/mg]	Papp at 18 hours, 50 µM [1, 3] [×10⁻⁶ cm/s]	microsomal CLint at 1 uM [2, 4] [µL/min/mg]
CC(C)C[C@H]1C(=O)N(C)[C@@H](Cc2ccccc2)C(=O)N(C)[C@@H](CC(C)C)C(=O)N[C@H](C(=O)N2CCCCC2)CC(=O)N[C@H](C(C)C)C(=O)N[C@@H](C)C(=O)N[C@@H]([C@@H](C)O)C(=O)N(C)[C@@H](C)C(=O)N[C@@H](Cc2ccccc2)C(=O)N1C [DP-78] ([dV]AT[NMeA]F[NMeL][NMeF][NMeL]D-Piperidide; lactam N-9)	38	57	–	–
CC(C)C[C@H]1C(=O)NCC(=O)N[C@H](C(=O)N2CCCCC2)CC(=O)N(C)[C@@H](C)C(=O)N[C@@H]([C@@H](C)O)C(=O)N(C)[C@@H](C)C(=O)N(C)[C@@H](Cc2ccccc2)C(=O)N[C@@H](COC(C)(C)C)C(=O)N(C)[C@@H](Cc2ccccc2)C(=O)N1C [DP-79] ([NMeA]T[NMeA][NMeF]S(tBu)[NMeF][NMeL]GD-Piperidide; lactam N-9)	28	145	–	–
CC(C)C[C@H]1C(=O)N(C)[C@@H](Cc2ccccc2)C(=O)NCC(=O)N[C@H](C(=O)N2CCCCC2)CC(=O)N(C)CCC(=O)N[C@@H]([C@@H](C)O)C(=O)N(C)[C@@H](C)C(=O)N[C@@H](COC(C)(C)C)C(=O)N(C)[C@@H](Cc2ccccc2)C(=O)N1C [DP-80] ([NMeβAla]T[NMeA]S(tBu)[NMeF][NMeL][NMeF]GD-Piperidide; lactam N-9)	12	43	–	–
CC[C@H](C)[C@H]1C(=O)N[C@H](C(=O)N2CCCCC2)CC(=O)N(C)[C@H](C)C(=O)N(C)[C@@H](Cc2ccccc2)C(=O)N(C)[C@@H](CC(C)C)C(=O)N[C@@H]([C@@H](C)O)C(=O)N(C)CC(=O)N[C@@H](COC(C)(C)C)C(=O)N(C)[C@@H](CC(C)C)C(=O)N1C [DP-81] ([dNMeA][NMeF][NMeL]T[Sar]S(tBu)[NMeL][NMeI]D-Piperidide; lactam N-9)	25	38	–	–
CC[C@H](C)[C@H]1C(=O)N[C@@H](C)C(=O)N[C@H](C(=O)N2CCCCC2)CC(=O)N[C@H](C)C(=O)N[C@@H](Cc2ccccc2)C(=O)N(C)[C@@H](CC(C)C)C(=O)N[C@@H](CC(C)C)C(=O)N[C@@H](Cc2ccccc2)C(=O)N2CCC[C@H]2C(=O)N[C@@H]([C@@H](C)O)C(=O)N[C@@H](COC(C)(C)C)C(=O)N(C)CC(=O)N1C [DP-88] ([dA]F[NMeL]LFPTS(tBu)[Sar][NMeI]AD-Piperidide; lactam N-12)	13	32	–	–
CC[C@H](C)[C@H]1C(=O)N[C@@H](CC(C)C)C(=O)NCC(=O)N(C)[C@@H](CC(C)C)C(=O)N[C@@H](Cc2ccccc2)C(=O)N[C@@H]([C@@H](C)O)C(=O)N(C)[C@@H](C)C(=O)N[C@H](C(=O)N2CCCCC2)CC(=O)N(C)[C@@H](C)C(=O)N[C@@H](Cc2ccccc2)C(=O)N(C)[C@@H](C(C)C)C(=O)N[C@@H](CC(C)C)C(=O)N1C [DP-89] ([NMeA]F[NMeV]L[NMeI]LG[NMeL]FT[NMeA]D-Piperidide; lactam N-12)	23	58	–	–
CC[C@H](C)[C@H]1C(=O)N(C)[C@@H](C)C(=O)N(C)[C@@H](CC(C)C)C(=O)N[C@@H](COC(C)(C)C)C(=O)N(C)[C@@H](CC(C)C)C(=O)N[C@H](C(=O)N2CCCCC2)CC(=O)N(C)[C@@H](C)C(=O)N(C)[C@@H](Cc2ccccc2)C(=O)N[C@@H](C)C(=O)N(C)[C@@H](CC(C)C)C(=O)N[C@@H]([C@@H](C)O)C(=O)N[C@@H](Cc2ccccc2)C(=O)N1C [DP-90] ([NMeA][NMeF]A[NMeL]TF[NMeI][NMeA][NMeL]S(tBu)[NMeL]D-Piperidide; lactam N-12)	–	–	9.1	30
CC[C@H](C)[C@H]1C(=O)NCC(=O)N(C)[C@@H](CC(C)C)C(=O)N[C@@H](CC(C)C)C(=O)N[C@H](C(=O)N2CCCCC2)CC(=O)N(C)CCC(=O)N(C)[C@@H](C)C(=O)N[C@@H](CC(C)C)C(=O)N[C@@H]([C@@H](C)O)C(=O)N2CCC[C@H]2C(=O)N[C@@H](Cc2ccccc2)C(=O)N(C)[C@@H](Cc2ccccc2)C(=O)N1C [DP-91] ([NMeβAla][NMeA]LTPF[NMeF][NMeI]G[NMeL]LD-Piperidide; lactam N-12)	20	58	–	–
CC[C@H](C)[C@H]1C(=O)N[C@@H](C)C(=O)N(C)[C@@H](CC(C)C)C(=O)N[C@@H](COC(C)(C)C)C(=O)N(C)[C@@H](CC(C)C)C(=O)N[C@H](C(=O)N2CCCCC2)CC(=O)N(C)CCC(=O)N[C@@H](Cc2ccccc2)C(=O)N(C)[C@@H](Cc2ccccc2)C(=O)N(C)[C@@H](CC(C)C)C(=O)N[C@@H]([C@@H](C)O)C(=O)N(C)[C@@H](C)C(=O)N1C [DP-92] ([NMeβAla]F[NMeF][NMeL]T[NMeA][NMeI]A[NMeL]S(tBu)[NMeL]D-Piperidide; lactam N-12)	–	–	26	29
CC[C@H](C)[C@H]1C(=O)NCC(=O)N(C)[C@@H](Cc2ccccc2)C(=O)N[C@@H]([C@@H](C)O)C(=O)N(C)[C@@H](C)C(=O)N[C@@H](CC(C)C)C(=O)N[C@H](C(=O)N2CCCCC2)CC(=O)N(C)[C@H](C)C(=O)N(C)[C@@H](C)C(=O)N[C@@H](Cc2ccccc2)C(=O)N(C)[C@@H](CC(C)C)C(=O)N[C@@H](C(C)C)C(=O)N1C [DP-93] ([dNMeA][NMeA]F[NMeL]V[NMeI]G[NMeF]T[NMeA]LD-Piperidide; lactam N-12)	22	17	–	–
CC[C@H](C)[C@H]1C(=O)N[C@H](C(=O)N2CCCCC2)CC(=O)N(C)[C@H](C)C(=O)N[C@@H](CC(C)C)C(=O)N(C)[C@@H](Cc2ccccc2)C(=O)N(C)[C@@H](CC(C)C)C(=O)NCC(=O)N(C)[C@@H](C(C)C)C(=O)N(C)[C@@H](Cc2ccccc2)C(=O)N(C)[C@@H](C)C(=O)N[C@@H]([C@@H](C)O)C(=O)N(C)[C@@H](C)C(=O)N1C [DP-94] ([dNMeA]L[NMeF][NMeL]G[NMeV][NMeF][NMeA]T[NMeA][NMeI]D-Piperidide; lactam N-12)	28	17	–	–
CC(C)C[C@@H]1NC(=O)[C@H](CC(C)C)N(C)C(=O)[C@H](C)NC(=O)[C@H](C(C)C)N(C)C(=O)[C@H](Cc2ccccc2)NC(=O)CN(C)C(=O)[C@H]([C@@H](C)O)NC(=O)[C@H](C)N(C)C(=O)[C@H](CC(C)C)N(C)C(=O)[C@@H](C)NC(=O)C[C@@H](C(=O)N2CCCCC2)NC1=O [DP-95] ([dA][NMeL][NMeA]T[Sar]F[NMeV]A[NMeL]LD-Piperidide; lactam N-11)	–	–	7.3	19
CC[C@H](C)[C@H]1C(=O)N(C)[C@@H](CC(C)C)C(=O)N[C@H](C(=O)N2CCCCC2)CC(=O)N[C@H](C)C(=O)N(C)[C@@H](CC(C)C)C(=O)N[C@@H](CC(C)C)C(=O)N(C)[C@@H](Cc2ccccc2)C(=O)N[C@@H](COC(C)(C)C)C(=O)N(C)[C@@H](Cc2ccccc2)C(=O)N[C@@H]([C@@H](C)O)C(=O)N(C)[C@@H](C)C(=O)N1C [DP-96] ([dA][NMeL]L[NMeF]S(tBu)[NMeF]T[NMeA][NMeI][NMeL]D-Piperidide; lactam N-11)	13	51	–	–
CC[C@H](C)[C@H]1C(=O)N[C@@H]([C@@H](C)O)C(=O)N(C)CC(=O)N[C@H](C(=O)N2CCCCC2)CC(=O)N[C@H](C)C(=O)N[C@@H](CC(C)C)C(=O)N(C)[C@@H](CC(C)C)C(=O)N(C)[C@@H](Cc2ccccc2)C(=O)N[C@@H](C)C(=O)N(C)[C@@H](Cc2ccccc2)C(=O)N(C)[C@@H](CC(C)C)C(=O)N1C [DP-97] ([dA]L[NMeL][NMeF]A[NMeF][NMeL][NMeI]T[Sar]D-Piperidide; lactam N-11)	27	72	–	–
CC[C@H](C)[C@H]1C(=O)N(C)[C@@H](C(C)C)C(=O)N(C)CC(=O)N[C@@H]([C@@H](C)O)C(=O)N[C@H](C(=O)N2CCCCC2)CC(=O)N[C@H](C)C(=O)N(C)[C@@H](C)C(=O)N(C)[C@@H](CC(C)C)C(=O)N[C@@H](CC(C)C)C(=O)N(C)[C@@H](Cc2ccccc2)C(=O)N[C@@H](Cc2ccccc2)C(=O)N1C [DP-98] ([dA][NMeA][NMeL]L[NMeF]F[NMeI][NMeV][Sar]TD-Piperidide; lactam N-11)	–	–	26	27
CC[C@H](C)[C@H]1C(=O)N(C)[C@@H](CC(C)C)C(=O)N(C)[C@@H](Cc2ccccc2)C(=O)N[C@@H]([C@@H](C)O)C(=O)N(C)[C@@H](Cc2ccccc2)C(=O)N(C)[C@@H](CC(C)C)C(=O)N(C)[C@@H](C)C(=O)N[C@H](C(=O)N2CCCCC2)CC(=O)N[C@H](C)C(=O)N[C@@H](C)C(=O)N(C)[C@@H](CC(C)C)C(=O)N1C [DP-99] ([dA]A[NMeL][NMeI][NMeL][NMeF]T[NMeF][NMeL][NMeA]D-Piperidide; lactam N-11)	56	52	–	–
CC[C@H](C)[C@H]1C(=O)N(C)[C@@H](CC(C)C)C(=O)N[C@H](C(=O)N2CCCCC2)CC(=O)N(C)[C@@H](C)C(=O)N(C)[C@@H](CC(C)C)C(=O)N[C@@H](CC(C)C)C(=O)N(C)[C@@H](Cc2ccccc2)C(=O)N[C@@H](COC(C)(C)C)C(=O)N(C)[C@@H](Cc2ccccc2)C(=O)N[C@@H]([C@@H](C)O)C(=O)N(C)[C@@H](C)C(=O)N1C [DP-100] ([NMeA][NMeL]L[NMeF]S(tBu)[NMeF]T[NMeA][NMeI][NMeL]D-Piperidide; lactam N-11)	1.7	80	–	–
